According to publication PMC8437966, “Structure and function relationship of OqxB efflux pump from Klebsiella pneumoniae” (Nature Communications, 2021):
Converted amounts (≈) assume the structure as drawn.

What was measured:
[1] = system: Escherichia coli BW25113
Description: (§1) MIC (Minimum Inhibitory Concentration) was determined according to CLSI guidelines, as discussed elsewhere. Briefly, the strains were streaked on LB-Agar plates with Ampicillin (100 µg/mL) from glycerol stocks maintained at −80 °C and allowed to grow overnight at 37 °C. A single colony of each strain was picked from the fresh plates and grown in MHB No.2 Control Cations Hi-Media (MHB) with Ampicillin (100 µg/mL). Phe-Arg β-Naphthylamide (PAβN; Sigma-Aldrich, Catalog no.# P4157) was used at a final concentration of 20 µg/mL, wherever mentioned. The AcrAB and OqxAB expression are under a […] promoter, and AcrB and OqxB were induced with 100 μM of IPTG (Amresco, Catalog no.# 0487-10 G). Antibiotics and their two-fold dilution series were prepared in DMSO. Three microliters compound from each of the dilutions and 150 μL (3–7 × 10^5 CFU/mL) of bacterial culture were added to a flat bottom 96 well microtiter plates to obtain final antibiotic concentrations ranging from 0.03 µg/mL to 160 µg/mL. The plates were packed in gas permeable polythene bags and incubated at 37 °C for 16–18 h. MIC was determined as the concentration at which no bacterial growth was observed as ascertained by absorbance (A600nm) with a spectrophotometer. In the case of the wild-type strain and clinical isolates, 90% growth inhibition was used for MIC determination. […] All experiments were performed in triplicates and the data reported in this work is representative of the same. OqxB, the RND efflux pump component, is associated with increased resistance in clinical isolates of E. coli and K. pneumoniae. To understand the efflux liability for fluoroquinolones in E. coli in the clinic, 84 recent clinical isolates were evaluated by MIC experiments (at St. John’s Medical Hospital, Bengaluru, India). […] To delineate the cause of the resistance, the Quinolone-resistance determining regions (QRDR) of gyrA and parC were sequenced. […] Therefore, complementation experiments in “sensitive strains” were undertaken to further probe the role of OqxB in efflux towards fluoroquinolone resistance.

[2] = system: Escherichia coli SEC037
Description: as §1

[3] = system: Escherichia coli SEC030
Description: as §1

[4] = system: Escherichia coli SEC086
Description: as §1

[5] = system: T1, Escherichia coli SEC032; parameters: CLSI broth microdilution MIC, 96-well, absorbance at 600 nm
T1 construct: SEC032
Description: as §1

[6] = system: T2, Escherichia coli SEC063; parameters: CLSI broth microdilution MIC, 96-well, absorbance at 600 nm
T2 construct: SEC063
Description: as §1

[7] = system: T3, Escherichia coli SEC052; parameters: CLSI broth microdilution MIC, 96-well, absorbance at 600 nm
T3 construct: SEC052
Description: as §1

[8] = system: T4, Escherichia coli SEC010; parameters: CLSI broth microdilution MIC, 96-well, absorbance at 600 nm
T4 construct: SEC010
Description: as §1

[9] = system: T5, Escherichia coli SEC056; parameters: CLSI broth microdilution MIC, 96-well, absorbance at 600 nm
T5 construct: SEC056
Description: as §1

[10] = system: T6, Escherichia coli SEC045; parameters: CLSI broth microdilution MIC, 96-well, absorbance at 600 nm
T6 construct: SEC045
Description: as §1

[11] = system: T1, Escherichia coli SEC032; assay: microbe, parasite or virus in culture; parameters: species or system Escherichia coli clinical isolates; CLSI broth microdilution MIC on E. coli clinical isolates, A600 read-out, 90% growth inhibition; conditions: SEC032, read-out: MIC VALUES / Ampicillin
Description: as §1

[12] = system: T7, Escherichia coli SEC030; assay: microbe, parasite or virus in culture; parameters: species or system Escherichia coli clinical isolates; CLSI broth microdilution MIC on E. coli clinical isolates, A600 read-out, 90% growth inhibition; conditions: SEC030, read-out: MIC VALUES / Ampicillin
T7 construct: SEC030
Description: as §1

[13] = system: T8, Escherichia coli SEC046; assay: microbe, parasite or virus in culture; parameters: species or system Escherichia coli clinical isolates; CLSI broth microdilution MIC on E. coli clinical isolates, A600 read-out, 90% growth inhibition; conditions: SEC046, read-out: MIC VALUES / Ampicillin
T8 construct: SEC046
Description: as §1

[14] = system: T9, Escherichia coli SEC050; assay: microbe, parasite or virus in culture; parameters: species or system Escherichia coli clinical isolates; CLSI broth microdilution MIC on E. coli clinical isolates, A600 read-out, 90% growth inhibition; conditions: SEC050, read-out: MIC VALUES / Ampicillin
T9 construct: SEC050
Description: as §1

[15] = system: T6, Escherichia coli SEC045; assay: microbe, parasite or virus in culture; parameters: species or system Escherichia coli clinical isolates; CLSI broth microdilution MIC on E. coli clinical isolates, A600 read-out, 90% growth inhibition; conditions: SEC045, read-out: MIC VALUES / Ampicillin
Description: as §1

[16] = system: T10, Escherichia coli SEC086; assay: microbe, parasite or virus in culture; parameters: species or system Escherichia coli clinical isolates; CLSI broth microdilution MIC on E. coli clinical isolates, A600 read-out, 90% growth inhibition; conditions: SEC086, read-out: MIC VALUES / Ampicillin
T10 construct: SEC086
Description: as §1

[17] = system: T11, Escherichia coli SEC037; assay: microbe, parasite or virus in culture; parameters: species or system Escherichia coli clinical isolates; CLSI broth microdilution MIC on E. coli clinical isolates, A600 read-out, 90% growth inhibition; conditions: SEC037, read-out: MIC VALUES / Ampicillin
T11 construct: SEC037
Description: as §1

Row | SMILES | Linezolid MIC without PAβN [1] | Linezolid MIC without PAβN [2] | Linezolid MIC without PAβN [3] | Linezolid MIC without PAβN [4] | Linezolid MIC without PAβN [5] | Linezolid MIC without PAβN [6] | Linezolid MIC without PAβN [7] | Linezolid MIC without PAβN [8] | Linezolid MIC without PAβN [9] | Linezolid MIC without PAβN [10] | MIC [11] | MIC [12] | MIC [13] | MIC [14] | MIC [15] | MIC [16] | MIC [17]
1 | CC(=O)NC[C@H]1CN(c2ccc(N3CCOCC3)c(F)c2)C(=O)O1 [Linezolid] | 200 µg/mL | 200 µg/mL | 400 µg/mL | 200 µg/mL | 400 µg/mL | 400 µg/mL | 200 µg/mL | 400 µg/mL | 200 µg/mL | 200 µg/mL | – | – | – | – | – | – | –
2 | CC1(C)S[C@@H]2[C@H](NC(=O)[C@H](N)c3ccccc3)C(=O)N2[C@H]1C(=O)O [ampicillin] | – | – | – | – | – | – | – | – | – | – | 8 µg/mL (≈ 22.9 µM) | 2 µg/mL (≈ 5.72 µM) | 8 µg/mL (≈ 22.9 µM) | 8 µg/mL (≈ 22.9 µM) | 4 µg/mL (≈ 11.4 µM) | 4 µg/mL (≈ 11.4 µM) | 2 µg/mL (≈ 5.72 µM)
